Measurements: US20140243239A1, “MULTIPLEXED KINASE INHIBITOR BEADS AND USES THEREOF” (University of North Carolina at Chapel Hill, priority 2011, published 2014)

Legend:
SUM159 cells = experiment: SUM159 cell growth (Cell-Titer Glo, cell counts); format: cell-based, human; settings: for SUM159 cell growth inhibition in combination with AZD6244 / SUM159 cell growth inhibition, RTK inhibitor as single agent: Cell-Titer Glo (FIG. 5C, 5D)
Procedure: (§1) Cell Culture: MDA-MB-231 cells were grown in DMEM/F12 supplemented with 10% FBS. SUM-159 cells were grown in DMEM/F12 supplemented with 10% FBS 1 μg/mL hydrocortisone, and 5 μg/mL insulin. SUM159-R cells were continually grown in the presence of 5 μM AZD6244. For SILAC labeling, cells were grown for five doublings in arginine- and lysine-depleted media (as above) supplemented with either unlabeled L-arginine (42 mg/L) and L-lysine (71 mg/L) or equimolar amounts of heavy isotope labeled [13C6,15N4]arginine (Arg10) and [13C6]lysine (Lys6) (Cambridge Isotope Laboratories). Proliferation was quantified using Cell-Titer Glo Luminescent Cell Viability Assay (Promega). Fresh media containing DMSO or kinase inhibitors was added daily and experiments were performed in triplicate.

ERK1/2 [1] = experiment: Western blot of MEK/ERK signaling in SUM159 cells; format: cell-based, human; settings: BEZ235 (FIG. 10F)
Excerpt: (§2) Detailed methods and antibodies are provided in Supplemental Experimental Procedures.
(§3) Western blotting: Proteins from cell lysates were separated by SDS-PAGE chromatography, transferred to nitrocellulose membranes, and probed with the indicated primary antibodies. Antibodies recognizing pAKT (S473), pAKT (T308), AURA, pAXL (Y702), AXL, c-Myc, DDR1, EGFR, pERK1/2 (T202/Y204), pHER3 (Y1197), MAX, pMEK1/2 (S217/S221), MEK1/2, MKP3, pP70S6K (T389), pPDGFRβ (Y751), pPDGFRβ (Y1009), pPDGFR (Y857), PDGFRβ, pRAF (S338), pRSK1 (T359/S363), pVEGFR2 (Y1175), VEGFR2 were obtained from Cell Signaling Technology. Antibodies for Cyclin A2, Cyclin B1, Cyclin D1, ERK2, RAF, and pRAF (S259) were obtained from Santa Cruz Biotechnology. The antibody recognizing Bim was obtained from Chemicon. The antibody recognizing p-c-Myc (S62) was obtained from Abeam. Secondary HRP-anti-rabbit and HRP-anti-goat secondary antibodies were from Jackson Immunoresearch Laboratories and Santa Cruz Biotechnology, respectively. Western blots were visualized by incubation with SuperSignal West Pico Chemiluminescent Substrate (Thermo Scientific).

RTKs [2] = experiment: RTK tyrosine phosphorylation/expression in SUM159 cells (RTK arrays, western blot); format: cell-based, human
Procedure: (§4) Western blotting and RTK arrays: Western blotting and RTK array analysis were performed as previously described (Amin et al., 2010). Amin et al. 2010 Sci Transl Med 2, 16ra17. Detailed methods and antibodies are provided in Supplemental Experimental Procedures.
as §3
RTK arrays: Cells were harvested in RTK array lysis buffer containing 20 mM Tris-HCl (pH 8.0), 1% NP-40, 10% glycerol, 137 mM NaCl, 2 mM EDTA, 1×EDTA-free protease inhibitor cocktail (Roche), and 1% each of phosphatase inhibitor cocktails 1 and 2 (Sigma). After incubating on ice for 20 minutes, cell debris was pelleted at 4° C. Lysates (500 μg protein) were applied to R&D Systems Proteome Profiler™ Human Phospho-RTK antibody arrays. Washing and secondary antibody steps were performed according to the manufacturer“s instructions. RTK arrays were visualized by SuperSignal West Pico Chemiluminescent Substrate (Thermo Scientific).

c-Myc = c-Myc protein and RNA levels in SUM159 cells (western blot, qRT-PCR); format: cell-based, human
Procedure: as §4
qRT-PCR: Total RNA was isolated from human breast cancer cell lines or murine tumors using the RNeasy® Plus Mini Kit (Qiagen). Real-time RT-PCR was performed on diluted cDNA using the Applied Biosystems 7500 Fast Real-Time PCR System (standard program) and inventoried TaqMan® Gene Expression Assays. Each cDNA sample was assayed in triplicate. Fold change with respect to the calibrator represents the average of the triplicate values, with error bars representing the range of the mean (95% confidence).
as §3

p70 S6 kinase [3] = experiment: p70 S6 kinase activity in SUM159 cells; format: cell-based, human; settings: BEZ235 (FIG. 10F)
Excerpt: as §2, §3

p70 S6 kinase [4] = experiment: p70 S6 kinase activity in HPAC pancreatic cancer cells; format: cell-based
Procedure: (§5) Kinome reprogramming in pancreatic cancer—cell type and inhibitor specific. The kinome response to drug in 3 pancreatic cancer cell lines (HPAC, AsPC-1, HPAF-II) was also evaluated using 3 kinase inhibitors that are currently in Phase I/II clinical trials: BKM120 (Novartis), an oral pan-class 1 PI3K inhibitor, […] (Glaxo Smith-Kline), an ATP competitive PI3K/mTOR inhibitor, and GSK1120212, a reversible allosteric inhibitor of MEK1/2 (Glaxo Smith-Kline). The kinome response for GSK2126458 and GSK1120212 was compared using MIB/MS and RTK arrays to determine if kinome reprogramming was inhibitor-specific. […] Thus, kinome reprogramming is target-specific.

[5] = system: ALK, RET, INSR and IGF-1R; experiment: RTK phosphorylation in pancreatic cancer cells (RTK arrays); format: cell-based
Procedure: as §5
Kinome reprogramming in pancreatic cancer cell lines: HPAC, AsPC-1, HPAF-II cell lines were treated with either GSK1120212, GSK2126458, BKM120 or vehicle control and harvested at […]. Normalized spot intensity of RTK arrays were measured and activated and repressed RTK were determined in response to either GSK1120212 or GSK2126458 4 h and 72 h after treatment.

MDA-MB-231 cells = experiment: MDA-MB-231 cell growth (Cell-Titer Glo); format: cell-based, human; settings: for MDA-MB-231 cell growth in combination with AZD6244: combination with AZD6244 (FIG. 12C, 12D, 12G)
Procedure: as §1

RTKs [6] = experiment: RTK expression in SUM159-R cells (western blot, qRT-PCR); format: cell-based, human; settings: 10 nM bortezomib, 24 h
Procedure: as §2
(§6) Generation of AZD6244 resistant SUM159 cells: SUM159 cells were cultured in DMEM/F12 supplemented with 10% FBS media containing 5 μM AZD6244. Media was changed every 2 days, maintaining inhibitor concentrations of 5 μM AZD6244.

SUM159-R cells = experiment: Growth of AZD6244-resistant SUM159-R cells; format: cell-based, human; settings: 250 nM sorafenib, 72 h, cells grown in 5 μM AZD6244
Procedure: as §1, §6

ERK1/2 [7] = experiment: ERK activity in SUM159-R cells (western blot); format: cell-based, human; settings: sorafenib (250 nM) added to 5 μM AZD6244
Procedure: as §2, §6, §3

C3Tag tumors = experiment: In vivo tumorigenesis experiment, C3Tag TNBC GEMM (tumor volume); design: species or system mouse; settings: C3Tag mice, 21 days, sorafenib 30 mg/kg in diet
Procedure: In vivo tumorigenesis experiments: Animal handling and procedures were approved by the University of North Carolina at Chapel Hill Institutional Animal Care and Use Committee and followed the NIH guidelines. Male C3Tag mice were bred with wild type females to produce experimental offspring. Mice were examined for tumors weekly until a palpable mass was found. Treatment began the same day. Tumor size was assessed twice weekly by caliper measurements of tumor areas ((width)2×length))/2 for 21 days. Percent change of tumor volume was calculated using (Final volume−Initial Volume)/Initial Volume and graphed using R (http://www.r-project.org/). Drugs were incorporated into the diet of mice to achieve a daily dose of AZD6244 20 mg/kg and sorafenib 30 mg/kg. Food was provided ab libitum and the amount of daily food intake was pre-determined using Jackson Labs Phenome Database. Tumors at harvest were cut in half and either snap-frozen in liquid nitrogen and stored at −80° C. or placed in neutral buffered 10% formalin solution.

ERK = experiment: MEK/ERK activation in C3Tag tumors (western blot); format: in vivo, mouse; settings: AZD6244 20 mg/kg 28 days; sorafenib 30 mg/kg 26 days
Procedure: (§7) Treatment began the same day. Tumor size was assessed twice weekly by caliper measurements of tumor areas ((width)2×length))/2 for 21 days. […] Drugs were incorporated into the diet of mice to achieve a daily dose of AZD6244 20 mg/kg and sorafenib 30 mg/kg. […] Tumors at harvest were cut in half and either snap-frozen in liquid nitrogen and stored at −80° C. or placed in neutral buffered 10% formalin solution.
as §3, with “Western blots were visualized by incubation with SuperSignal West Pico Chemiluminescent Substrate (Thermo Scientific).” left out

RTKs [8] = experiment: RTK expression in C3Tag tumors (western blot); format: in vivo, mouse; settings: AZD6244 20 mg/kg 28 days; sorafenib 30 mg/kg 26 days
Procedure: as §7, §3

[9] = system: kinome (kinase binding to MIBs) of C3Tag tumors; experiment: MIB/MS kinome profile of C3Tag tumors; format: in vivo, mouse; settings: sorafenib 30 mg/kg, 26 days
Excerpt: Multiplexed inhibitor bead affinity chromatography: Cells and tumors were lysed and harvested as previously described (Oppermann et al., 2009). Oppermann et al., 2009 Mol Cell Proteo 8 1751-1764. Briefly, lysates were brought to 1 M NaCl and passed through columns of washed inhibitor-conjugated beads (bisindoylmaleimide-X, SB203580, lapatinib, dasatinib, purvalanol B, VI16832, PP58) to isolate protein kinases from the lysates (see Supplemental Experimental Procedures for MIBs preparation). Kinase-bound inhibitor beads were washed with high-salt buffer and 0.1% SDS before elution in 0.5% SDS solution in high heat. Proteins were purified using chloroform/methanol extraction, resuspended in 50 mM ammonium bicarbonate (pH 8.0) or 50 mM HEPES (pH 8.0) for SILAC or iTRAQ respectfully. […]
LC-MS/MS analysis: MS and MS/MS data were acquired using a MALDI TOF/TOF 5800 (AB SCIEX). Peptides were analyzed using ProteinPilot Software Version 3.0 (AB SCIEX) and identification using UniProtKB/Swiss-Prot database (release Oct. 15, 2009). […] ProteinPilot software 3.0 identified and quantified changes in kinase binding to MIBs utilizing the Pro Group Algorithm. […]
Treatment began the same day. Tumor size was assessed twice weekly by caliper measurements of tumor areas ((width)2×length))/2 for 21 days. […]

Cn1c(=O)n(-c2ccc(C(C)(C)C#N)cc2)c2c3cc(-c4cnc5ccccc5c4)ccc3ncc21 [BEZ235]
growth of SUM159 cells (SUM159 cells; BEZ235 50 nM): strongly growth arrests | effect on the ERK pathway (ERK1/2 [1]): little effect | RTK phosphorylation profile (RTKs [2]; 5 μM AZD6244, 50 nM BEZ235 (FIG. 3H)): did not change the RTK phosphorylation profile except for an increase in phospho-AXL | c-Myc expression (c-Myc; BEZ235 100 nM (FIG. 11C)): does not change | p70 S6 kinase activity (p70 S6 kinase [3]): inhibits p70 S6 kinase activity

COc1ncc(-c2ccc3nccc(-c4ccnnc4)c3c2)cc1NS(=O)(=O)c1ccc(F)cc1F [GSK2126458]
p70 S6 kinase activity (p70 S6 kinase [4]): inhibited p70 S6 kinase activity | ALK, RET, INSR and IGF-1R phosphorylation [5]: induced ALK, RET, INSR and IGF-1R phosphorylation

CCCS(=O)(=O)Nc1ccc(F)c(C(=O)c2c[nH]c3ncc(Cl)cc23)c1F [PLX4720]
growth of SUM159 cells, RAF inhibitor in combination with AZD6244 (SUM159 cells; cotreatment 72 h (FIG. 12F)): stimulated the growth

N#CC(=C(/N)Sc1ccccc1N)/C(C#N)=C(\N)Sc1ccccc1N [U0126]
growth of SUM159 cells (SUM159 cells; 5 μM MEK inhibitor (FIG. 2A)): inhibited growth | growth of MDA-MB-231 cells (MDA-MB-231 cells; 5 μM MEK inhibitor (FIG. 9A)): inhibited growth

CC(C)C[C@H](NC(=O)[C@H](Cc1ccccc1)NC(=O)c1cnccn1)B(O)O [bortezomib]
AZD6244-dependent upregulation of RTKs (RTKs [2]; bortezomib 3, 10 or 20 nM with 5 μM AZD6244, 24 h): inhibited upregulation of RTKs | AZD6244-induced c-Myc degradation (c-Myc; bortezomib with 5 μM AZD6244, 24 h): prevented AZD6244-induced c-Myc degradation | RTK expression in SUM159-R cells (RTKs [6]): readily reversed RTK expression

COc1cc2c(Oc3ccc(NC(=O)C4(C(=O)Nc5ccc(F)cc5)CC4)cc3F)ccnc2cc1OCCCN1CCOCC1 [foretinib]
SUM159 cell growth inhibition in combination with AZD6244 (SUM159 cells): synergistic | SUM159 cell growth inhibition, RTK inhibitor as single agent (SUM159 cells): ineffective as single agents | MDA-MB-231 cell growth in combination with AZD6244 (MDA-MB-231 cells): little effect

CNC(=O)c1cc(Oc2ccc(NC(=O)Nc3ccc(Cl)c(C(F)(F)F)c3)cc2)ccn1 [sorafenib]
SUM159 cell growth inhibition in combination with AZD6244 (SUM159 cells): synergistic | SUM159 cell growth inhibition, RTK inhibitor as single agent (SUM159 cells): ineffective as single agents | growth of SUM159 cells, sorafenib at the highest dose tested in combination with AZD6244 (SUM159 cells; highest dose tested, 72 h): synergistically inhibited growth | SUM159 proliferation, sorafenib at low doses in combination with AZD6244 (SUM159 cells; low doses, 72 h): did not significantly stimulate proliferation | MDA-MB-231 cell growth in combination with AZD6244 (MDA-MB-231 cells): synergizes | growth of SUM159-R cells, cell counts (SUM159-R cells): Inhibited cell growth | Tyr phosphorylation of RTKs induced by AZD6244 (RTKs [2]; RTK arrays, 72 h, with AZD6244): inhibited Tyr phosphorylation of multiple RTKs | ERK activity in SUM159-R cells (ERK1/2 [7]): inhibited ERK activity | effect on tumor progression (C3Tag tumors): no effect | tumor MEK and ERK compared to untreated animals (ERK): strongly activated | expression of RTKs in C3Tag tumors versus untreated (RTKs [8]): do not alter RTK expression | MIB binding of BRAF, PDGFRβ, CSF1R, DDR1, DDR2, KIT, MLTK and FRK [9]: decreased MIB binding
